From PubChem BioAssay (NCI)
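Grown in 96-well plates, cells were treated for 48 hours with each compound at five concentrations. Insufficient inhibition: endpoint recorded as highest concentration tested. Definition used: TGI = concentration required for complete inhibition of growth.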

How the values were obtained:
Assay in all cases: DTP human tumour cell line panel, 48 h
HCT-15 colon = system: HCT-15 colon
SK-MEL-5 melanoma = system: SK-MEL-5 melanoma
NCI-H522 lung = system: NCI-H522 lung
NCI-H460 lung = system: NCI-H460 lung
DU-145 prostate = system: DU-145 prostate
M14 melanoma = system: M14 melanoma
ACHN renal = system: ACHN renal
OVCAR-8 ovarian = system: OVCAR-8 ovarian
HCC-2998 colon = system: HCC-2998 colon
UACC-62 melanoma = system: UACC-62 melanoma

Row | Compound | TGI (HCT-15 colon) [µM] | TGI (SK-MEL-5 melanoma) [µM] | TGI (NCI-H522 lung) [µM] | TGI (NCI-H460 lung) [µM] | TGI (DU-145 prostate) [µM] | TGI (M14 melanoma) [µM] | TGI (ACHN renal) [µM] | TGI (OVCAR-8 ovarian) [µM] | TGI (HCC-2998 colon) [µM] | TGI (UACC-62 melanoma) [µM]
1 | CC(C)NC(=O)OCc1c(COC(=O)NC(C)C)c(-c2cc[n+](COC(=O)C3CC3)cc2)n2c1CCC2 | > 100 | > 100 | > 100 | > 100 | > 100 | > 100 | > 100 | > 100 | > 100 | > 100
2 | O=[N+]([O-])c1ccc2[nH]c(=S)[nH]c(=S)c2c1 | > 100 | > 100 | > 100 | > 100 | > 100 | > 100 | > 100 | > 100 | > 100 | > 100
3 | Cc1ccc(C2SCC(=O)N2c2ccc(-n3c(-c4ccccc4)nc4ccccc4c3=O)cc2)cc1 (stereo not given) | 52 | 31.9 | 58.6 | 27.6 | > 100 | 69.2 | 86.4 | > 100 | 63.1 | 51.5
4 | O=C1Nc2cccc(Cl)c2/C1=C\c1c(Cl)nc2n1CCS2 | > 100 | > 100 | > 100 | > 100 | > 100 | > 100 | > 100 | > 100 | > 100 | > 100
5 | CCn1c(-c2ccccc2)cs/c1=N\C(P(=O)(O)O)P(=O)(O)O | > 100 | > 100 | > 100 | > 100 | > 100 | > 100 | > 100 | > 100 | > 100 | > 100
6 | N#CC1C(=S)NC(c2ccccc2)=CC12CCCCC2 (stereo not given) | 53 | 90.4 | 42.2 | > 100 | 61.5 | 84.9 | 72.3 | > 100 | > 100 | 42.7
7 | C=CCc1cccc2cc(C(=O)NCc3ccccc3)c(=N)oc12 | > 100 | 64.4 | 44.2 | > 100 | > 100 | > 100 | > 100 | > 100 | 67.8 | > 100
8 | CCOC(=O)CCC(NC(=O)Cc1ccc(Nc2nc3cc(F)c(F)cc3nc2C(=O)OCC)cc1)C(=O)OCC (stereo not given) | > 100 | > 100 | > 100 | > 100 | > 100 | > 100 | > 100 | > 100 | > 100 | > 100
9 | Cc1n(Cc2ccccc2)c2c([n+]1C)C(=O)c1ccccc1C2=O | 16.2 | 0.0509 | 0.135 | 0.5 | 0.32 | 0.282 | 11.4 | 0.826 | 1.45 | 0.451
10 | CC(=O)c1ccccc1NP(=O)(c1ccccc1)c1ccccc1 | > 100 | > 100 | > 100 | > 100 | > 100 | > 100 | > 100 | > 100 | > 100 | > 100
11 | O=c1[nH]cnc2c1cnn2Cc1cn(CCCCO)nn1 | > 100 | > 100 | > 100 | > 100 | > 100 | > 100 | > 100 | > 100 | > 100 | > 100
12 | COC(=O)c1ccc(/C=C/c2cc(O)ccc2O)cc1 | 12.2 | > 25.5 | 0.356 | 25.9 | > 100 | 43 | 14.1 | 18.4 | > 59.6 | 17.4
13 | CN(C)c1ccc(/C=c2/c3ccccc3n3c2c2c([n+]3C)CCCC2)cc1 | 5.56 | 0.217 | 0.687 | 0.758 | 2.39 | 1.5 | 1.99 | 2.49 | 0.375 | 1.95
14 | C/C=C/C(CC(O)(C(F)(F)F)C(F)(F)F)=N/NC(N)=S | > 10 | > 10 | > 10 | > 10 | > 10 | > 10 | > 10 | > 10 | > 10 | > 10
15 | O=C(Nc1ccccc1)c1cc(S(=O)(=O)NC2=NC(c3ccccc3)c3cc(Cl)ccc3N2)c(SSc2cc(Cl)c(C(=O)Nc3ccccc3)cc2S(=O)(=O)NC2=NC(c3ccccc3)c3cc(Cl)ccc3N2)cc1Cl (stereo not given) | > 100 | > 100 | > 100 | > 100 | > 100 | > 100 | > 100 | > 100 | > 100 | > 100
16 | Cc1ccc(-n2cnc(C(=N)C#N)c2N)cc1 | > 100 | > 100 | > 100 | > 100 | > 100 | > 100 | > 100 | > 100 | > 100 | > 100
17 | Cc1[nH]c(=O)nc2nc3ccc(Cl)cc3c(NCCNCCO)c12 | 31.9 | 25.4 | 12.9 | 25 | 29.4 | 25.8 | 27.4 | 21.6 | 26.5 | 24.3
18 | CC1=NN(c2nc(N)nc(/C(C#N)=C\c3ccc([N+](=O)[O-])s3)n2)C(C)(C)C1 | 0.325 | 1.84 | 0.354 | 0.553 | 0.597 | 0.8 | 0.719 | 0.21 | 4.4 | 2.25
19 | C[C@H]1[C@H]2[C@H]3CC[C@@H]4[C@@]5(C)CC[C@H](O)C(C)(C)[C@@H]5CC[C@@]4(C)[C@]3(C)C[C@H](O)[C@@]2(C)C[C@H]2O[C@]21C | 54.8 | 42.6 | 48.9 | 40.1 | 31.5 | 73.6 | 31.1 | 48.2 | 37.4 | 76
20 | CO/N=C(\C)c1ccc(Nc2nc3ccccc3c3occc23)cc1 | 30.5 | 29.8 | 24 | 34.1 | 29.7 | 30.2 | 27.6 | 33.9 | 30.4 | 24.7
